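Method: 48-hour compound exposure of cells in 96-well plates, five concentrations, linear interpolation of endpoints. Abbreviation: GI50, concentration required for 50% inhibition of growth. TGI denotes the concentration required for complete inhibition of growth.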
Assays:
Test in all cases: NCI anticancer screen, dose series, 48 h
HS 578T breast = test system: HS 578T breast
CAKI-1 renal = test system: CAKI-1 renal
NCI-H226 lung = test system: NCI-H226 lung
U251 CNS = test system: U251 CNS
HCT-15 colon = test system: HCT-15 colon
SF-295 CNS = test system: SF-295 CNS
NCI/ADR-RES ovarian = test system: NCI/ADR-RES ovarian
SNB-19 CNS = test system: SNB-19 CNS
SK-MEL-28 melanoma = test system: SK-MEL-28 melanoma
OVCAR-3 ovarian = test system: OVCAR-3 ovarian
SW-620 colon = test system: SW-620 colon
CCRF-CEM leukemia = test system: CCRF-CEM leukemia
NCI-H23 lung = test system: NCI-H23 lung
UACC-257 melanoma = test system: UACC-257 melanoma
EKVX NSCLC = test system: EKVX NSCLC
SK-OV-3 ovarian = test system: SK-OV-3 ovarian
RPMI-8226 leukemia = test system: RPMI-8226 leukemia
HL-60(TB) leukemia = test system: HL-60(TB) leukemia
ACHN renal = test system: ACHN renal
MALME-3M melanoma = test system: MALME-3M melanoma
K-562 leukemia = test system: K-562 leukemia
HT29 colon = test system: HT29 colon
UACC-62 melanoma = test system: UACC-62 melanoma
A549 NSCLC = test system: A549 NSCLC
786-0 renal = test system: 786-0 renal
MDA-MB-231 breast = test system: MDA-MB-231 breast
SNB-75 CNS = test system: SNB-75 CNS
HOP-92 NSCLC = test system: HOP-92 NSCLC
RXF 393 renal = test system: RXF 393 renal
MDA-MB-435 = test system: MDA-MB-435
SF-268 CNS = test system: SF-268 CNS
SF-539 CNS = test system: SF-539 CNS
TK-10 renal = test system: TK-10 renal
T-47D breast = test system: T-47D breast
SK-MEL-2 melanoma = test system: SK-MEL-2 melanoma
NCI-H460 lung = test system: NCI-H460 lung
PC-3 prostate = test system: PC-3 prostate
UO-31 renal = test system: UO-31 renal
SR leukemia = test system: SR leukemia
BT-549 breast = test system: BT-549 breast
LOX IMVI melanoma = test system: LOX IMVI melanoma
NCI-H522 lung = test system: NCI-H522 lung
COLO 205 colon = test system: COLO 205 colon
IGROV1 ovarian = test system: IGROV1 ovarian
OVCAR-8 ovarian = test system: OVCAR-8 ovarian
KM12 colon = test system: KM12 colon
OVCAR-4 ovarian = test system: OVCAR-4 ovarian
MCF7 breast = test system: MCF7 breast
OVCAR-5 ovarian = test system: OVCAR-5 ovarian
MOLT-4 leukemia = test system: MOLT-4 leukemia
DU-145 prostate = test system: DU-145 prostate
SN12C renal = test system: SN12C renal
HCC-2998 colon = test system: HCC-2998 colon
SK-MEL-5 melanoma = test system: SK-MEL-5 melanoma
A498 renal = test system: A498 renal

CC(C)(C)C(=O)Nc1ccccc1I(=O)=O
GI50 (HS 578T breast): > 100 µM | TGI (HS 578T breast): > 100 µM | GI50 (CAKI-1 renal): > 100 µM | TGI (CAKI-1 renal): > 100 µM | GI50 (NCI-H226 lung): > 100 µM | TGI (NCI-H226 lung): > 100 µM | GI50 (U251 CNS): > 100 µM | TGI (U251 CNS): > 100 µM | GI50 (HCT-15 colon): > 100 µM | TGI (HCT-15 colon): > 100 µM | GI50 (SF-295 CNS): > 100 µM | TGI (SF-295 CNS): > 100 µM | GI50 (NCI/ADR-RES ovarian): > 100 µM | TGI (NCI/ADR-RES ovarian): > 100 µM | GI50 (SNB-19 CNS): > 100 µM | TGI (SNB-19 CNS): > 100 µM | GI50 (SK-MEL-28 melanoma): > 100 µM | TGI (SK-MEL-28 melanoma): > 100 µM | GI50 (OVCAR-3 ovarian): > 100 µM | TGI (OVCAR-3 ovarian): > 100 µM | GI50 (SW-620 colon): > 100 µM | TGI (SW-620 colon): > 100 µM | GI50 (CCRF-CEM leukemia): > 100 µM | TGI (CCRF-CEM leukemia): > 100 µM | GI50 (NCI-H23 lung): > 100 µM | TGI (NCI-H23 lung): > 100 µM | GI50 (UACC-257 melanoma): > 100 µM | TGI (UACC-257 melanoma): > 100 µM | GI50 (EKVX NSCLC): > 100 µM | TGI (EKVX NSCLC): > 100 µM | GI50 (SK-OV-3 ovarian): > 100 µM | TGI (SK-OV-3 ovarian): > 100 µM | GI50 (RPMI-8226 leukemia): > 100 µM | TGI (RPMI-8226 leukemia): > 100 µM | GI50 (HL-60(TB) leukemia): > 100 µM | TGI (HL-60(TB) leukemia): > 100 µM | GI50 (ACHN renal): > 100 µM | TGI (ACHN renal): > 100 µM | GI50 (MALME-3M melanoma): > 100 µM | TGI (MALME-3M melanoma): > 100 µM | GI50 (K-562 leukemia): > 100 µM | TGI (K-562 leukemia): > 100 µM | GI50 (HT29 colon): > 100 µM | TGI (HT29 colon): > 100 µM | GI50 (UACC-62 melanoma): > 100 µM | TGI (UACC-62 melanoma): > 100 µM | GI50 (A549 NSCLC): > 100 µM | TGI (A549 NSCLC): > 100 µM | GI50 (786-0 renal): > 100 µM | TGI (786-0 renal): > 100 µM | GI50 (MDA-MB-231 breast): > 100 µM | TGI (MDA-MB-231 breast): > 100 µM | GI50 (SNB-75 CNS): > 100 µM | TGI (SNB-75 CNS): > 100 µM | GI50 (HOP-92 NSCLC): > 100 µM | TGI (HOP-92 NSCLC): > 100 µM | GI50 (RXF 393 renal): > 100 µM | TGI (RXF 393 renal): > 100 µM | GI50 (MDA-MB-435): > 100 µM | TGI (MDA-MB-435): > 100 µM | GI50 (SF-268 CNS): > 100 µM | TGI (SF-268 CNS): > 100 µM | GI50 (SF-539 CNS): > 100 µM | TGI (SF-539 CNS): > 100 µM | GI50 (TK-10 renal): > 100 µM | TGI (TK-10 renal): > 100 µM | GI50 (T-47D breast): > 100 µM | TGI (T-47D breast): > 100 µM | GI50 (SK-MEL-2 melanoma): > 100 µM | TGI (SK-MEL-2 melanoma): > 100 µM | GI50 (NCI-H460 lung): > 100 µM | TGI (NCI-H460 lung): > 100 µM | GI50 (PC-3 prostate): > 100 µM | TGI (PC-3 prostate): > 100 µM | GI50 (UO-31 renal): > 100 µM | TGI (UO-31 renal): > 100 µM | GI50 (SR leukemia): 26 µM | TGI (SR leukemia): > 100 µM | GI50 (BT-549 breast): > 100 µM | TGI (BT-549 breast): > 100 µM | GI50 (LOX IMVI melanoma): > 100 µM | TGI (LOX IMVI melanoma): > 100 µM | GI50 (NCI-H522 lung): > 100 µM | TGI (NCI-H522 lung): > 100 µM | GI50 (COLO 205 colon): > 100 µM | TGI (COLO 205 colon): > 100 µM | GI50 (IGROV1 ovarian): > 100 µM | TGI (IGROV1 ovarian): > 100 µM | GI50 (OVCAR-8 ovarian): > 100 µM | TGI (OVCAR-8 ovarian): > 100 µM | GI50 (KM12 colon): > 100 µM | TGI (KM12 colon): > 100 µM | GI50 (OVCAR-4 ovarian): > 100 µM | TGI (OVCAR-4 ovarian): > 100 µM | GI50 (MCF7 breast): > 100 µM | TGI (MCF7 breast): > 100 µM | GI50 (OVCAR-5 ovarian): > 100 µM | TGI (OVCAR-5 ovarian): > 100 µM | GI50 (MOLT-4 leukemia): > 100 µM | TGI (MOLT-4 leukemia): > 100 µM | GI50 (DU-145 prostate): > 100 µM | TGI (DU-145 prostate): > 100 µM | GI50 (SN12C renal): > 100 µM | TGI (SN12C renal): > 100 µM | GI50 (HCC-2998 colon): > 100 µM | TGI (HCC-2998 colon): > 100 µM | GI50 (SK-MEL-5 melanoma): > 100 µM | TGI (SK-MEL-5 melanoma): > 100 µM | GI50 (A498 renal): > 100 µM | TGI (A498 renal): > 100 µM

Reference: PubChem BioAssay (NCI)
